In US11434242B2, “Dopamine-b-hydroxylase inhibitors” (BIAL-PORTELA & Cª, S.A., priority 2017, dated 2022):

Molecular target: T1, Dopamine beta hydroxylase (Homo sapiens, UniProt P09172)
T1 construct: 125 μl of plasma; tissue Instituto Português do Sangue Transplantação; host or cells: human plasma from healthy donors
T1 sequence (P09172 40-617 limits assumed): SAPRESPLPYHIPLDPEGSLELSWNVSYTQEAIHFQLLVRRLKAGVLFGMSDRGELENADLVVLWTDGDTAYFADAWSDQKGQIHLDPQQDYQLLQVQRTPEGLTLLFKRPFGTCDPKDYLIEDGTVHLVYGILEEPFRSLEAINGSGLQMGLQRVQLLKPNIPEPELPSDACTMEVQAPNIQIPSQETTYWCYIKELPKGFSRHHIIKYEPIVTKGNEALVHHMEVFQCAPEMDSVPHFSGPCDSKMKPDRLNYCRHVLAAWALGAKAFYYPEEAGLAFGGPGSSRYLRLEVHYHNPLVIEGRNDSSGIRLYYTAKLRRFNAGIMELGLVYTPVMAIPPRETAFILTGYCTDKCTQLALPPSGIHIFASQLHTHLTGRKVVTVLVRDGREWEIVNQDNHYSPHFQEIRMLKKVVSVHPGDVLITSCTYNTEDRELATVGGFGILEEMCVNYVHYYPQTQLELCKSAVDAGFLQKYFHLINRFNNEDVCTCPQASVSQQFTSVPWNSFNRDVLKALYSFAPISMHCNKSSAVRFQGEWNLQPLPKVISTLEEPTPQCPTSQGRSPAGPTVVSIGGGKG
Assay: Dopamine beta hydroxylase activity in human plasma
Format: biochemical
Conditions: for Plasma (0.01 μM), activity in % of control: inhibitor 0.01 μM; for Plasma (0.1 μM), activity in % of control: inhibitor 0.1 μM
Procedure, shortened: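 Healthy-donor human plasma pre-incubated 10 min at 37° C with compound at final 10, 100 or 1000 nM in pH 5.0 acetate buffer with ascorbate, fumarate, pargyline, N-ethylmaleimide, catalase and copper sulfate. Tyramine substrate then added for 45 min; octopamine formed was isolated by SCX cartridge, periodate-converted and read at 330 nm; activity given as % control.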

Structure (SMILES)	Plasma (0.01 μM), activity in % of control	Plasma (0.1 μM), activity in % of control
O=S1(=O)CCC(NCCc2[nH]c(=S)n3c2C[C@H](c2c(F)ccc(Br)c2F)C3)CC1 [Example 178, (R)-6-(3-bromo-2,6-difluorophenyl)-1-(2-((1,1-dioxidotetrahydro-2H-thiopyran-4-yl)amino)ethyl)-2,5,6,7-tetrahydro-3H-pyrrolo[1,2-c]imidazole-3-thione]	88.2 % of control	29.5 % of control
CS(=O)(=O)C1CCN(CCc2[nH]c(=S)n3c2C[C@H](c2c(F)ccc(Br)c2F)C3)CC1 [Example 179, (R)-6-(3-bromo-2,6-difluorophenyl)-1-(2-(4-(methylsulfonyl)piperidin-1-yl)ethyl)-2,5,6,7-tetrahydro-3H-pyrrolo[1,2-c]imidazole-3-thione]	93.5 % of control	48.8 % of control
Fc1ccc(Br)cc1[C@]12C[C@H]1c1c(CCNCC(F)(F)F)[nH]c(=S)n1C2 [Example 180, (5aS,6aR)-5a-(5-bromo-2-fluorophenyl)-1-(2-((2,2,2-trifluoroethyl)amino)ethyl)-5,5a,6,6a-tetrahydrocyclopropa[3,4]pyrrolo[1,2-c]imidazole-3(2H)-thione]	99.2 % of control	22.3 % of control
Fc1ccc(Br)c(F)c1[C@@H]1Cc2c(CCNC3CCC3)[nH]c(=S)n2C1 [Example 181, (S)-6-(3-bromo-2,6-difluorophenyl)-1-(2-(cyclobutylamino)ethyl)-2,5,6,7-tetrahydro-3H-pyrrolo[1,2-c]imidazole-3-thione]	68.9 % of control	18.3 % of control
CS(=O)(=O)CCNCCc1[nH]c(=S)n2c1C[C@H](c1c(F)ccc(Br)c1F)C2 [Example 182, (R)-6-(3-bromo-2,6-difluorophenyl)-1-(2-((2-(methylsulfonyl)ethyl)amino)ethyl)-2,5,6,7-tetrahydro-3H-pyrrolo[1,2-c]imidazole-3-thione]	94.6 % of control	71.0 % of control

Continued, values first:

Plasma (0.01 μM), activity in % of control	Plasma (0.1 μM), activity in % of control	Structure (SMILES)
92.2 % of control	79.8 % of control	CN(CCO)CCc1[nH]c(=S)n2c1C[C@H](c1c(F)ccc(Br)c1F)C2 [Example 183, (R)-6-(3-bromo-2,6-difluorophenyl)-1-(2-((2-hydroxyethyl)(methyl)amino)ethyl)-2,5,6,7-tetrahydro-3H-pyrrolo[1,2-c]imidazole-3-thione]
89.2 % of control	43.7 % of control	C[C@@H](NCCc1[nH]c(=S)n2c1C[C@H](c1c(F)ccc(Br)c1F)C2)C1CCCCC1 [Example 184, (R)-6-(3-bromo-2,6-difluorophenyl)-1-(2-(((R)-1-cyclohexylethyl)amino)ethyl)-2,5,6,7-tetrahydro-3H-pyrrolo[1,2-c]imidazole-3-thione]
72.9 % of control	30.9 % of control	Cl.Fc1ccc(Br)cc1[C@]12C[C@H]1c1c(CCN3CCCC3)[nH]c(=S)n1C2 [Example 185, (5aS,6aR)-5a-(5-bromo-2-fluorophenyl)-1-(2-(pyrrolidin-1-yl)ethyl)-5,5a,6,6a-tetrahydrocyclopropa[3,4]pyrrolo[1,2-c]imidazole-3(2H)-thione hydrochloride]
62.7 % of control	18.0 % of control	Cl.Fc1ccc(Br)cc1[C@]12C[C@H]1c1c(CCNCC3CC3)[nH]c(=S)n1C2 [Example 186, (5aS,6aR)-5a-(5-bromo-2-fluorophenyl)-1-(2-((cyclopropylmethyl)amino)ethyl)-5,5a,6,6a-tetrahydrocyclopropa[3,4]pyrrolo[1,2-c]imidazole-3(2H)-thione hydrochloride]
